Data on three compounds can be found in patent US6780842B2, “Ceruloplasmin and an antioxidant composition comprising the same and their uses as neuroprotective agent” (Warner-Lambert Company LLC, priority 1999, dated 2004).

The test system of one assay is CP ferroxidase activity. The assay can be described thus: CP ferroxidase activity after incubation with H2O2, without or with pyruvate. The assay is classed as biochemical, bovine. Particulars: FIG. 8; 5 mM pyruvate, CP 4 μM, 5 mM H2O2, 37° C. As to the method: CP (4 μM) was incubated for different times (ranging from 0 to 12 h) in the presence of 5 mM H2O2, at 37° C., in PBS, without or with the addition of pyruvate (5 mM) as a protecting agent. At the end of incubation, catalase was added at a concentration of 0.1 mg/ml (84 U/ml) and incubation resumed at room temperature for 15 min in order to inactivate H2O2. Ferroxidase activity of CP was then measured by absorbence using a modified version of the method of Erel (1998). This method uses a chromogen to complex Fe^2+ ions that were not transformed to Fe^3+ions in the assay solution. The reaction mix contained 0.45M acetate buffer, pH 5.8, 60 μM Fe(NH4)2(SO4).6H2O, and either CP (sample), 25 mM EDTA (control corresponding to 100% iron oxidation) or PBS (control corresponding to 0% iron oxidation).
FIG. 8. Protection of CP ferroxidase activity by pyruvate in vitro. CP was incubated for various times, at 37° C., in the presence of 5 mM H2O2, without (No protection) or with 5 mM sodium pyruvate. The reaction was stopped by a 5 min incubation with an excess of catalase. Ferroxidase activity was then measured and expressed relatively (%) to that of a control CP sample not exposed to H2O2. The experiment was done three times, in duplicate determinations, and results are expressed as means±S.D.

For assay [1] the following is noted: Atanasiu et al., 1998; cited from earlier work.
Assay [2] has as its system P19 neurons. The assay can be described thus: Viability of P19 neurons exposed to XA/XAO prooxidant system (Alamar Blue). It is filed as cell-based. Particulars: FIG. 3. As to the method:
(§1) Culture and neuronal differentiation of P19 embryonal carcinoma cells were done according to the procedures of Jeannotte et al. (1997) with the following modifications for microscale adaptation of cultures to 96-well plates: cell aggregates obtained at day 4 of the treatment of P19 cells with retinoic acid were trypsinized with 0.025% trypsin-1 mM EDTA in PBS and subjected to mechanical passages to obtain individual cells which were seeded in gelatin-precoated microwells at a density of 0.7-1×10^5 cells per well. The newly seeded cells (neurons) were cultured in supplemented Neurobasal medium (Neurobasal® containing 0.5 mM L-glutamine and 0.5% B27 supplement) until exposure to oxidative conditions at day 7. […]
(§2) P19 neurons were exposed to the following prooxidant systems: i) XA/XAO system (which produces •O2^− superoxide radicals and hydrogen peroxide H2O2, according to equation 1, shown below); ii) hydrogen peroxide H2O2; and iii) H2O2/Fe^+2 system (which generates •OH [hydroxyl radicals] via the Fenton reaction, equation 2). […] After they were incubated under oxidative conditions, neurons were analyzed for their residual viability by a fluorimetric assay using the Alamar Blue probe (see section 2.5). […]
(§3) After they were incubated under oxidative conditions, neurons were analyzed for their residual viability by a fluorimetric assay using the Alamar Blue probe. […]
(Resazurin is reduced to fluorescent resorufin, in cell work by metabolically active cells.)

For assay [3], the system named is P19 neurons. The assay can be described thus: Viability of P19 neurons exposed to H2O2 (Alamar Blue). The note with it: catalase 84 U; 5 mM hydrogen peroxide during 30 min. It is filed as cell-based. As to the method:
as §1, §2, §3

A short description of assay [4]: In vitro antioxidant capacity: inhibition of DPD oxidation by H2O2. It is filed as biochemical. Particulars: 84 U catalase; 30 min exposure to 5 mM H2O2 (not shown). As to the method: Oxidation of N,N-diethyl-p-phenylenediamine (DPD) by a prooxidant system was used as a general reporter of the amount of ROS generated by that system (Anonymous, 1985; Chahine et al., 1991). Antioxidant capacity of preparations of TRIAD (or of its components) was defined as the ability to inhibit the oxidation of DPD by prooxidants.
To estimate the antioxidant capacity of TRIAD preparations in the prooxidant conditions used with P19 neurons, DPD was added to a final concentration of 32 mM to 200 μl of each prooxidant system described above (see section 2.4) and incubated for the times tested with the cells. At the end of incubation, the amount of oxidized DPD was determined at 560 nm using a spectrophotometer adapted to microscale measurement.
FIG. 5. In vitro antioxidant capacity of CP and TRIAD, in the conditions of H2O2 prooxidant system used with P19 neurons. In this assay, conditions of incubation were as described in the legend to FIG. 4 except that P19 neurons were replaced by N,N-diethyl-p-phenylenediamine (DPD) which absorbs at 560 nm upon oxidation. The experiment was done four times, in triplicate determinations, and results are expressed as means±S.D.

Consider `CC(=O)C(=O)[O-].[Na+]` [pyruvate, sodium pyruvate], for which, in the assay with CP ferroxidase activity, the “Protection of CP ferroxidase activity against H2O2” value is given as “inhibited the loss of ferroxidase activity”.

With albumin, in assay [1], the “Concentration ensuring good antioxidative activity in vitro” value is 260 µM.

In the case of catalase, the “XAO concentration up to which protection was offered” value in the assay with P19 neurons [2] (250 μM XA, CP 4 μM, catalase 84 U) was “up to 50 mU/mL”. Moreover, the Protection to neurons result was “about 10%” in the assay on P19 neurons [2] (84 U catalase, incubated for 40 min with XAO in the presence of 250 μM XA) and 100% in the assay with P19 neurons [3]. Moreover, in assay [4], the “Inhibition of DPD oxidation by H2O2” value is reported as “completely inhibit DPD oxidation”.
